Reference: BindingDB's records for doi:10.1038/nchembio.168 (University of New Mexico Health Sciences Center, 2009)

Target: Estrogen receptor beta (Mus musculus, UniProt O08537)
Test: Binding affinity to ERbeta receptor in mouse COS7 cells by competitive binding assay

Chain of Estrogen receptor beta (O08537 whole entry): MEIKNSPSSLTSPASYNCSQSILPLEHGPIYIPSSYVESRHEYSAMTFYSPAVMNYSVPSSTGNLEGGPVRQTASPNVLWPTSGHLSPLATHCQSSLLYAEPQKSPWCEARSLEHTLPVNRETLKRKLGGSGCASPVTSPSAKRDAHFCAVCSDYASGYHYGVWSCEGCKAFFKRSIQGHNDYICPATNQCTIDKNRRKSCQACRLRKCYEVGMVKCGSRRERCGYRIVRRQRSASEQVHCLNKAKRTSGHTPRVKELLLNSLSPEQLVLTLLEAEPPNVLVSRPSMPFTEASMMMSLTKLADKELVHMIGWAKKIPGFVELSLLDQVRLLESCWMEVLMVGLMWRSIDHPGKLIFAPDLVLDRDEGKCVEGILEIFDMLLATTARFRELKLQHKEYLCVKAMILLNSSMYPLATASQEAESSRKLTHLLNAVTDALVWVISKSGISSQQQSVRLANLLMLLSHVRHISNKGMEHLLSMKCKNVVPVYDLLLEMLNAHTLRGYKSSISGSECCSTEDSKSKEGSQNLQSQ

SMILES: Brc1cc2c(cc1[C@@H]1Nc3ccccc3[C@@H]3C=CC[C@@H]31)OCO2
- Ki: > 10 µM
